Measurements reported in article PMC8879200, “Design, Synthesis, and Biological Evaluation of 4,4’-Difluorobenzhydrol Carbamates as Selective M1 Antagonists” (Pharmaceuticals, 2022).
Where “and” joins values, the source holds several entries; their conditions need not be identical. Identical values can stand only once.

How the values were obtained:
[1] = target: T1, hM3 (Homo sapiens, UniProt P20309); assay: Competitive [3H]NMS radioligand binding, CHO-hM3 cell membranes; conditions: for Ki: read-out: Affinity: Ki ± SD, hM3; for Displacement ± SD of [3H]NMS binding, hM3: single ligand concentration corresponding to a Ki of 1 µM (Cheng-Prusoff)
T1 construct: host or cells: CHO-K1, stably transfected
T1 sequence (P20309 whole entry): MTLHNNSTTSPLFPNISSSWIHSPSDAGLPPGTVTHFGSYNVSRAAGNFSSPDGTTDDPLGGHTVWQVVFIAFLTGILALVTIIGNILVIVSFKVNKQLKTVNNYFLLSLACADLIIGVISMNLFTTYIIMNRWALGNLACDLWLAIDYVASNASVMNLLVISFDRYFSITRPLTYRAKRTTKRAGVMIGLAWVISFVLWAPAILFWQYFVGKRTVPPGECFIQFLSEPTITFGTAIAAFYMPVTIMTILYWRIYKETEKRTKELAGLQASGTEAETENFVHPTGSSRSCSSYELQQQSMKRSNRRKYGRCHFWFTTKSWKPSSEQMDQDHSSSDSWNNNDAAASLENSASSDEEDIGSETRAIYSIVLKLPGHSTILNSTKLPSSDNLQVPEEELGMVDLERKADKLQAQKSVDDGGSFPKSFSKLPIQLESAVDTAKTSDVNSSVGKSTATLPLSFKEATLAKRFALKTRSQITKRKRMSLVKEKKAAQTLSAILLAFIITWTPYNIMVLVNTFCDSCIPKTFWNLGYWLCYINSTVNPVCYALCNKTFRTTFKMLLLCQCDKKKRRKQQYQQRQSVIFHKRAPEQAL
Protocol: (§1) We first assessed the carbamates’ affinities for human muscarinic acetylcholine receptors subtypes hM1–5 by means of a competitive radioligand binding assay displacing [N-methyl-^3H]scopolamine methyl chloride ([^3H]NMS) in cell membranes expressing the individual receptors.
(§2) Cell membranes bearing hM1-hM5 receptors were prepared as described previously. Briefly, stably transfected CHO-K1 cells were grown to at least 80% confluency in T175 flasks, washed with ice-cold DPBS, and scraped into a mixture of ice-cold of 2 mL 10 mM Tris-HCl, 1 mM EDTA-buffer, pH 7.4 and 200 µL protease inhibitor. A cell homogenate was prepared by passing the cell suspension through a G29 needle. The cell homogenates corresponding to two T175 flasks were combined and subsequently centrifuged (10 min, 1000 × g, 4 °C). Ultracentrifugation of the supernatant (1 h, 100,000 × g, 4 °C) yielded a membrane pellet, which was suspended in 250 µL 50 mM Tris-HCl buffer, pH 7.4 and stored at −80 °C.
(§3) Maximum binding was measured by using 5 µL DMSO, and nonspecific binding was measured by using 5 µL of 1 µM scopolamine in DMSO. […] The membrane-bound radioactivity was recovered by filtration through Whatman™ GF/B glass fibre filters pre-soaked in aqueous 0.1% PEI using an M-36 tygon tubed cell harvester (Brandel®, Gaithersburg, MD, USA). Membranes were washed 3 times with ice-cold washing buffer (50 mM Tris, pH 7.4) before being dried, transferred to 2 mL scintillation cocktail (UltimaGold™, high flashpoint LSC cocktail, PerkinElmer, Waltham, MA, USA) and counted in a β -counter (Hidex TDCR Liquid Scintillation Counter in CPM mode). IC50 values were calculated by a variable slope logistic regression using at least five distinct concentrations of test compounds, pipetted in triplicates.

[2] = target: T2, hM1 (Homo sapiens, UniProt P11229); assay: Competitive [3H]NMS radioligand binding, CHO-hM1 cell membranes; conditions: for Ki: inhibition of [3H]NMS binding, CHO-hM1 membranes, read-out: Affinity: Ki ± SD, hM1; for Displacement ± SD of [3H]NMS binding, hM1: single ligand concentration corresponding to a Ki of 1 µM (Cheng-Prusoff)
T2 construct: host or cells: CHO-K1, stably transfected
T2 sequence (P11229 1-460): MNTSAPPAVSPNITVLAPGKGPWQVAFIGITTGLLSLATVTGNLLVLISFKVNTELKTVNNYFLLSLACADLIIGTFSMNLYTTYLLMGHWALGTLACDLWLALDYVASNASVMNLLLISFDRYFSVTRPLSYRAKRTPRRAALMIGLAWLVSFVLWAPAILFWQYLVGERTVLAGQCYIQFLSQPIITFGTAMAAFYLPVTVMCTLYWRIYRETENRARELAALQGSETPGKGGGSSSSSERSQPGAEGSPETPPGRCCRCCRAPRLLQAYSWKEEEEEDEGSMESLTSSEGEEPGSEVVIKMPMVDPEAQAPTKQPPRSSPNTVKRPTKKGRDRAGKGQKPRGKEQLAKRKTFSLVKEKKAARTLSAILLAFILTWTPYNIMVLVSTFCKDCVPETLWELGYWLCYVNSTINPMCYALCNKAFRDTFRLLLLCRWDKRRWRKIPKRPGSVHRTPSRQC
Protocol: as §1, §2, §3

[3] = target: T3, hM4 (Homo sapiens, UniProt P08173); assay: Competitive [3H]NMS radioligand binding, CHO-hM4 cell membranes; conditions: for Ki: inhibition of [3H]NMS binding, CHO-hM4 membranes, read-out: Affinity: Ki ± SD, hM4; for Displacement ± SD of [3H]NMS binding, hM4: single ligand concentration corresponding to a Ki of 1 µM (Cheng-Prusoff)
T3 construct: host or cells: CHO-K1, stably transfected
T3 sequence (P08173 1-479): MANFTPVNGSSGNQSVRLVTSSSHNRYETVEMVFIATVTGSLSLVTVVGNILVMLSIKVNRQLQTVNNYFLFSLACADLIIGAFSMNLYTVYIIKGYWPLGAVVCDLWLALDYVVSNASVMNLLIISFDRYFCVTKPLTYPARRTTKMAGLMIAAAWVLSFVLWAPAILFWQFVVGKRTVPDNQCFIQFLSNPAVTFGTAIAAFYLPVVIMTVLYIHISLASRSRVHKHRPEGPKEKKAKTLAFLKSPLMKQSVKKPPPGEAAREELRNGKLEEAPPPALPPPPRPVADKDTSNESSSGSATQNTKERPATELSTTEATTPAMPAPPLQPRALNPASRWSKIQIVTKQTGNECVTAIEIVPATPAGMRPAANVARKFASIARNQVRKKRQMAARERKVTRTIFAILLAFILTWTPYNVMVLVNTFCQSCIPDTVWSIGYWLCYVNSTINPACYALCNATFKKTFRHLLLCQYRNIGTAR
Protocol: as §1, §2, §3

[4] = target: T4, hM2 (Homo sapiens, UniProt P08172); assay: Competitive [3H]NMS radioligand binding, CHO-hM2 cell membranes; conditions: for Ki: read-out: Affinity: Ki ± SD, hM2; for Displacement ± SD of [3H]NMS binding, hM2: single ligand concentration corresponding to a Ki of 1 µM (Cheng-Prusoff)
T4 construct: host or cells: CHO-K1, stably transfected
T4 sequence (P08172 1-466): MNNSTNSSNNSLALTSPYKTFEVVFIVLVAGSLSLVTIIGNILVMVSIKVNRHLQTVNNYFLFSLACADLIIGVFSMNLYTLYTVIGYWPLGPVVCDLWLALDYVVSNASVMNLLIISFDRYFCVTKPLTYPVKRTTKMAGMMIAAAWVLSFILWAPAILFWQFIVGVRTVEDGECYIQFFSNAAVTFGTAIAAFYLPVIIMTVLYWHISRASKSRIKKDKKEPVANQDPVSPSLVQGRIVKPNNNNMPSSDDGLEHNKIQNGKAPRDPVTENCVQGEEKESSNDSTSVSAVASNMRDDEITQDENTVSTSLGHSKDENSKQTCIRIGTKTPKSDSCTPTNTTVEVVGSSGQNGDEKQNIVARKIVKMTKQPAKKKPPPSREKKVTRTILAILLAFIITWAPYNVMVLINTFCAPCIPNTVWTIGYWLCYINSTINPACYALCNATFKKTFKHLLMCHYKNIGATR
Protocol: as §1, §2, §3

[5] = target: T5, hM5 (Homo sapiens, UniProt P08912); assay: Competitive [3H]NMS radioligand binding, CHO-hM5 cell membranes; conditions: for Ki: inhibition of [3H]NMS binding, CHO-hM5 membranes, read-out: Affinity: Ki ± SD, hM5; for Displacement ± SD of [3H]NMS binding, hM5: single ligand concentration corresponding to a Ki of 1 µM (Cheng-Prusoff)
T5 construct: host or cells: CHO-K1, stably transfected
T5 sequence (P08912 1-532): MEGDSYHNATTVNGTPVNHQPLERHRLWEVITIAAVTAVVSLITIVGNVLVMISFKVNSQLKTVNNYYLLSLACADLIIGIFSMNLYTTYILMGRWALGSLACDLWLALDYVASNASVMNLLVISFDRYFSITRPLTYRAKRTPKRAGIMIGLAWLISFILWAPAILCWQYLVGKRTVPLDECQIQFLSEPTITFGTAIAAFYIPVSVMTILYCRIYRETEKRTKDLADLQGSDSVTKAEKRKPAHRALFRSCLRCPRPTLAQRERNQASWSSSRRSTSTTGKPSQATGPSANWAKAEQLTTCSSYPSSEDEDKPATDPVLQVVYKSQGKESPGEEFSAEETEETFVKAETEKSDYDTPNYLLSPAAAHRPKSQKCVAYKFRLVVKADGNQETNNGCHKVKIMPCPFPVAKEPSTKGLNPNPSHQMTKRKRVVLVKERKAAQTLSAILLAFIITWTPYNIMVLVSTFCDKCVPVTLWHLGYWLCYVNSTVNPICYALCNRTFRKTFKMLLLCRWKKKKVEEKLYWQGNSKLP
Protocol: as §1, §2, §3

[6] = High throughput HPLC-logD (lipophilicity); conditions: pH 7.4
Protocol: Briefly, a mixture of toluene (≥98%, Sigma-Aldrich, St. Louis, MO, USA) and triphenylene (≥99.9%, Carl Roth, Karlsruhe, Germany) was used as internal standard. Each sample was dissolved in the internal standard mixture. Using gradient elution, the injection volume was set to 7 µL, the flow rate was 1.5 mL/min, and the mobile phase consisted of a mixture of methanol and 0.01 M sodium phosphate buffer pH 7.4. The HPLC-logD values were derived from the measured retention times following the previously published equation [27, 30].

Row | SMILES | Ki [1] | Ki [2] | Ki [3] | Ki [4] | Ki [5] | chromatographic logD [6] | Displacement ± SD of [3H]NMS binding, hM3 [1] | Displacement ± SD of [3H]NMS binding, hM1 [2] | Displacement ± SD of [3H]NMS binding, hM4 [3] | Displacement ± SD of [3H]NMS binding, hM2 [4] | Displacement ± SD of [3H]NMS binding, hM5 [5] | x-Fold selectivity for hM1 vs. hM3 ([1]; ratio of Ki values hM3/hM1) | x-Fold selectivity for hM1 vs. hM4 ([3]; ratio of Ki values hM4/hM1) | x-Fold selectivity for hM1 vs. hM2 ([4]; ratio of Ki values hM2/hM1) | x-Fold selectivity for hM1 vs. hM5 ([5]; ratio of Ki values hM5/hM1)
1 | CN1CCC(NC(=O)OC(c2ccc(F)cc2)c2ccc(F)cc2)CC1 [Compound 6, Bis(4-fluorophenyl)methyl (1-methylpiperidin-4-yl)carbamate] |  |  |  |  |  | 3.25 ± 0.04 | 29 ± 5% | 52 ± 8% | 48 ± 9% | 10 ± 7% | 54 ± 8% |  |  |  | 
2 | CN1CC2(CCN(C(=O)OC(c3ccc(F)cc3)c3ccc(F)cc3)C2)C1 [Compound 5, Bis(4-fluorophenyl)methyl 2-methyl-2,6-diazaspiro[3.4]octane-6-carboxylate] | 165 ± 37.5 nM | 24.9 ± 6.2 nM | 150 ± 52.9 nM | > 1000 nM | 231 ± 25.7 nM | 2.69 ± 0.01 |  |  |  |  |  | 6.6 fold | 6.0 fold | >40 fold | 9 fold and 9.3 fold
3 | CN1CCN(C(=O)OC(c2ccc(F)cc2)c2ccc(F)cc2)CC1 [Compound 1, Bis(4-fluorophenyl)methyl 4-methylpiperazine-1-carboxylate] | 226 ± 85.2 nM | 15.2 ± 3.6 nM | 54.8 ± 20.5 nM | > 1000 nM | 50.6 ± 3.9 nM | 3.16 ± 0.01 |  |  |  |  |  |  |  |  | 

Continued, values first:

Row | Ki [1] | Ki [2] | Ki [3] | Ki [4] | Ki [5] | chromatographic logD [6] | Displacement ± SD of [3H]NMS binding, hM3 [1] | Displacement ± SD of [3H]NMS binding, hM1 [2] | Displacement ± SD of [3H]NMS binding, hM4 [3] | Displacement ± SD of [3H]NMS binding, hM2 [4] | Displacement ± SD of [3H]NMS binding, hM5 [5] | x-Fold selectivity for hM1 vs. hM3 ([1]; ratio of Ki values hM3/hM1) | x-Fold selectivity for hM1 vs. hM4 ([3]; ratio of Ki values hM4/hM1) | x-Fold selectivity for hM1 vs. hM2 ([4]; ratio of Ki values hM2/hM1) | x-Fold selectivity for hM1 vs. hM5 ([5]; ratio of Ki values hM5/hM1) | SMILES
4 | 28.4 ± 10.7 nM | 1.2 ± 0.4 nM | 14.4 ± 5.5 nM | 227 ± 85.9 nM | 4.8 ± 1.6 nM | 3.2 ± 0.02 |  |  |  |  |  |  |  |  |  | CN1CCCN(C(=O)OC(c2ccc(F)cc2)c2ccc(F)cc2)CC1 [Compound 2, Bis(4-fluorophenyl)methyl 4-methyl-1,4-diazepane-1-carboxylate]
5 |  |  |  |  |  | 2.82 ± 0.04 | 25 ± 9% | 39 ± 5% | 20 ± 8% | 8 ± 5% | 43 ± 11% |  |  |  |  | CN1CCOCC1CNC(=O)OC(c1ccc(F)cc1)c1ccc(F)cc1 (stereo not shown) [Compound 12, Bis(4-fluorophenyl)methyl ((4-methylmorpholin-3-yl)methyl)carbamate]
